Converted amounts (≈) assume the structure as drawn. Like-named read-outs stand apart in the source and are kept apart here.

The subject of series [1] is woodchuck hepatitis virus (WHV). The series can be described thus: Monotherapy in woodchuck model, BID oral dosing for 4 weeks. Type of series: in vivo. On the procedure: Therefore, five groups of four animals each (all groups had both sexes, all but the control had two of each sex) were assigned to 0, 12.5, 25, 50, and 100 mg/kg/day with BID oral dosing. These were lab-reared wild animals. All animals were infected with woodchuck hepatitis virus (WHV) as neonates, and had been tested positive on serological tests for WHV surface antigen. Blood samples were drawn one week prior to dosing (-1 week), immediately before dosing (0 weeks), weekly during dosing (1, 2, 3, and 4 weeks), and after the end of dosing (5, 6, 8, and 10 weeks).
(§1) There are two measures of drug efficacy: reduction in total HBV DNA (measured by quantitative PCR), and reduction in HBV DNA from capsids with intact surface glycoproteins, which is the active form of the virus (measured by an ELISA-like immune precipitation assay followed by quantitative PCR).
Before models are fitted to the data, a log transform was applied because: 1) the variation in IPDNA increases with increasing IPDNA values; the log transformation gives values with a nearly constant variation, and 2) it is expected that drug effects will appear as a constant multiplier of the IPDNA level. Because there are zero values of IPDNA, a small value (about 1/2 of the smallest non-zero value) was added to all values before the log transform.
Two approaches were used to model the changes in slope to week with dose of N-nonyl-DNJ: a linear modeling approach and a nonlinear model. Both approaches assume that the (linear) rate of change of the Log(IPDNA) measure over the dosing period is the "right" measure to reflect the effect of the drug on the virus. Both approaches are fit in stages, and the first stage is common to both approaches. First, a simple straight line regression model is fit using weeks 0-4 to predict log(IPDNA_+_10) separately for each animal by run combination. In the second stage, the response variable is the slope fitted in the first stage.
For the linear approach, a model is fit with slope to week as the response where run is considered a block, dose has a significant effect (almost all of this effect is due to a slope to dose), and the relevant error for testing the effect of dose is the variation among animals treated alike (after the adjustment for the runs as blocks). This is similar to using the calibration data within each run to first adjust each run's data to a common virus DNA concentration; the difference is that here the data from the woodchucks are used for the run adjustment rather than only the calibration data.
For the nonlinear approach, a four parameter logistic model is fit with the slope to week as the response and the dose as the predictor. […]

For another series, the system named is HBV DNA. Description: Cell culture experiments with N-nonyl-DNJ: total HBV DNA and immune precipitated DNA. Type of series: cell-based.
From the text: as §1

Series [2] relates to HepG 2.2.15 (2.2.15) cells. The series can be described thus: IC-90 values used for the combostat dilutions (unpublished observation / literature). It is filed as cell-based. The settings on record: Hepatitis B virus, HepG2.2.15, T. Block and G. Jacob. On the procedure:
The anti-hepatitis B virus effect of […] (3TC) alone and in combination with N-nonyl-DNJ was determined according to Korba ((1996) Antiviral Research 29(1):49-51), using the "combostat" strategy (Comstat Program, Combostat Corp., Duluth, MN). The combostat method involves serially diluting the IC-90 of each compound. The IC-90 of N-nonyl-DNJ has been determined to be between 4 and 10 µg/ml (T. Block and G. Jacob, unpublished observation). The accepted IC-90 for 3TC in HepG 2.2.15 (2.2.15) cells is 300nM to 500nM (Doong et al. (1991) Proc. Natl. Acad. Sci. USA 88:8495-8499).

The test system of another series is Hepatitis B Virus. Description: HBV secretion from chronically HBV secreting HepG2.2.15 cells (preS1 immunoprecipitation of virions, PCR). It is filed as cell-based. As to conditions: for Relative amount of HBV secreted as a % of Control: 3 days, control = 100. On the procedure: (§2) The anti-hepatitis B virus activity and effect on cell viability of a number of different N-substituted-1,5-dideoxy-1,5-imino-D-glucitol compounds were assessed using an in vitro assay employing chronically hepatitis B virus secreting HepG2.2.15 cells. The method employed was essentially that described in Block et al. (1994) Proc. Natl. Acad. Sci. USA 91:2235-2239.

The nature of series [3]: MTT-based colorimetric cell viability assay. The settings on record: human, hepg2.2.15 cells; read-out: [] for a 50% reduction in MMT. On the procedure: as §2
• 1: N-(n-nonyl)-1,5-dideoxy-1,5-imino-D-glucitol • 2: N-(n-butyl)-1,5-dideoxy-1,5-imino-D-glucitol, diacetate • 3: 1,5-dideoxy-1,5-imino-D-glucitol, tetracetate • 4: N,O-(1,6-carbonyl)-1,5-dideoxy-1,5-imino-D-glucitol • 5: N-(n-butyl)-2,3-dimethoxy-1,5-dideoxy-1,5-imino-D-glucitol • 6: N-(n-hexyl)-4,6-benzylidine-1,5-dideoxy-1,5-imino-D-glucitol • 7: N-(n-butyl)-3-methoxy-1,5-dideoxy-1,5-imino-D-glucitol • 8: N-(4,4,4-triflourobutyl)-2,3-dimethoxy-1,5-dideoxy-1,5-imino-D-glucitol, tetracetate • 9: N,O-(1,6-methylenecarbonyl)-1,5-dideoxy-1,5-irriino-D-glucitol • 10: N-(8,8,8-triflourooctyl)-1,5-dideoxy-1,5-imino-D-glucitol MMT: 3-(4,5-dimethylthiazol-2-yl)-2,5-diphenyltetrazolium bromide. The MTT-based colorimetric assay is a measurement of cell viability (Heo et al. (1990) Cancer Research 50:3681-3690).

For the next series, the system named is HepG2.2.15 cells. The series can be described thus: Cell viability by trypan blue exclusion. Type of series: cell-based. As to conditions: 3 days, cells excluding trypan blue.
Series [4] is described as follows: Cell viability by trypan blue exclusion. The settings on record: human, hepg2.2.15 cells, 3 days, cells excluding trypan blue, read-out: % Viable +/-1 S.D. It is filed as cell-based.
Setting [5] is: concentration [200] (unit not given).
Setting [6] is: concentration [1000] (unit not given).

Turning to `CCCCCCCCCN1C[C@H](O)[C@@H](O)[C@H](O)[C@H]1CO` [Compound 1 (Table 3), N-(n-nonyl)-1,5-dideoxy-1,5-imino-D-glucitol], the “decrease of IPDNA at the minimum slope” value in series [1] (corresponds to the average minimum slope) is recorded as “about 25 %/week”. The “average minimum slope observed” value in series [1] (printed as 'fewer' (a decrease), weeks 0-4) is 0.31 Log(IPDNA g/mL)/week. Moreover, the “effect on total HBV DNA measurements” value in series [1] (quantitative PCR, all dose levels, pre-dose and dosed portions of the study) is “no effect”. Besides, the “IPDNA levels over the dosing period” value in series [1] (weeks 0-4, immune precipitation followed by quantitative PCR) is “high dose animals tended to have decreasing levels of IPDNA”. For the same compound, in the series with HBV DNA, the “effect on immune precipitated DNA (IPDNA)” value is “marked effect” and the “effect on total HBV DNA” value is listed as “little or no effect”. In addition, in series [2], the IC90 was in the range of 4 to 10 µg/mL.
For `CCCCN1C[C@H](O)[C@@H](O)[C@H](O)[C@H]1CO` [NBDNJ, N-(n-butyl-)-1,5-dideoxy-1,5-imino-D-glucitol], the IC90 in the series with Hepatitis B Virus (Hepatitis B virus, HepG2.2.15, duplicate PCR results, * lowest concentration tested, ** no inhibition at the highest concentration used (200 microgs/ml), read-out: [ ] for 90% HBV secretion inhibition) lay within 0.5 to 1 µg/mL (≈ 2.28 to 4.56 µM). Also, the entries for the “Relative amount of HBV secreted as a % of Control” value with Hepatitis B Virus (setting [5]) and in the series with Hepatitis B Virus (setting [6]) were 37.0 +/-13 (n=15) % and 3.2 +/-5 (n=15) %, respectively. Also, the CC50 in series [3] fell in the range of 100 to 200 µg/mL (≈ 456 to 912 µM). For the same compound, the “% Viable +/-1 S.D.” value with HepG2.2.15 cells (concentration [200] (unit not given), listed as 1, 4320 min) is on record as 90 +/-2 (n=4) %. The viability at 72 h in series [4] (concentration [200] (unit inferred)) was determined as 94 ± 6%; in series [4] (concentration [1000] (unit inferred)), 87 ± 3%.
With “1,5-(butylimino)-1,5-dideoxy-D-glucitol, tetraacetate [Example 2]”, the “Relative amount of HBV secreted as a % of Control” value in the series on Hepatitis B Virus (setting [5]) is listed as 107.0 +/-12 (n=3) %; in the series with Hepatitis B Virus (setting [6]), 38.0 +/-15 (n=3) %. Further, the “[ ] for 90% HBV secretion inhibition” value with Hepatitis B Virus (duplicate PCR results, * lowest concentration tested, ** no inhibition at the highest concentration used (200 microgs/ml)) is on record as >200*s* microgs per ml. Further, the entries for the “% Viable +/-1 S.D.” value with HepG2.2.15 cells (setting [5]) and with HepG2.2.15 cells (setting [6]) were 90 +/-6 (n=4) % and 89 +/-4 (n=4) %, respectively.

These data come from patent EP1658846B1, “N-(8,8,8-trifluorooctyl)-1,5-dideoxy-1,5-imino-D-glucitol for treating hepatitis virus infections” (priority 1999, dated 2000).
